Measured values taken from patent US20190365784A1, “USE OF BRASSINOSTEROID ANALOGS FOR THE TREATMENT OF DERMAL DISORDERS BY SELECTIVELY MODULATING LIVER X RECEPTORS (LXR) AND DERMAL DISEASE TREATMENT BY BRASSINOSTEROID ANALOGS ACTING AS SELECTIVE LIVER X RECEPTOR (LXR) MODULATORS” (CONSEJO NACIONAL DE INVESTIGACIONES CIENTÍFICAS Y TÉCNICAS …, priority 2015, published 2019).

What was measured:
LXR-alpha [1] = target: T1, LXR-alpha (Homo sapiens, UniProt Q13133); test: LXR-alpha/RXR LRE-luciferase reporter in transfected HEK293T cells; format: cell-based; conditions: GW3965 1 uM, 18 h
T1 sequence (Q13133 1-447): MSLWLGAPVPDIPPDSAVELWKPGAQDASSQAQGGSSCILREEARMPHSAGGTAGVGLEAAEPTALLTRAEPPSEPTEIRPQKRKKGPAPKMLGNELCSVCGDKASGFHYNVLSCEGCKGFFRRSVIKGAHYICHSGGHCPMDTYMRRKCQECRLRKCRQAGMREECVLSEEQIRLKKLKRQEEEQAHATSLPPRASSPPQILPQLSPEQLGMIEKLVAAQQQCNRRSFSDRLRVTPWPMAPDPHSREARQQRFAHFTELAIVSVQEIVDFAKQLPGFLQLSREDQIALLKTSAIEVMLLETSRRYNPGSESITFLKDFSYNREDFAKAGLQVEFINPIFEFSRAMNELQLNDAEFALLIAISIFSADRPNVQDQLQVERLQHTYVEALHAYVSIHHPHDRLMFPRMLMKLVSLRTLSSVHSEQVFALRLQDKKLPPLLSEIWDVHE
T1 sequence (P19793 1-462 partner): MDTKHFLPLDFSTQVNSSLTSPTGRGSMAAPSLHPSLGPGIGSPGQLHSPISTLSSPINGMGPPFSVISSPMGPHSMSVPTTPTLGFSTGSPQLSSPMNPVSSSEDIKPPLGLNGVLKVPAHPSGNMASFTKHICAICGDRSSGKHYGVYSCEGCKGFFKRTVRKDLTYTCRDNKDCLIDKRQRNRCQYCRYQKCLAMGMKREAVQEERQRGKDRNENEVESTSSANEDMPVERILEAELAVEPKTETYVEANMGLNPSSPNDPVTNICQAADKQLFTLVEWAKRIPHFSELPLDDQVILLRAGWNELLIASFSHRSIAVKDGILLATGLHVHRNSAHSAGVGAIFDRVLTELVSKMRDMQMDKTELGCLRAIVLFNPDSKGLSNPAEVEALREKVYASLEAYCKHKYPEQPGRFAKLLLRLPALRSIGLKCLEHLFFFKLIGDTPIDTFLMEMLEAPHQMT
From the text: Since we had previously shown that the beneficial effects of the compounds of the invention are independent of glucocorticoid receptor (GR) activation, we set forth to investigate if they might exert their actions through activation of liver X receptors (LXR). For this purpose we used cultured cells transiently transfected with LXR-alpha, the retinoid X receptor (RXR) and a LXR response element-luciferase reporter (LRE-LUC). A. Human embryonic kidney cells (HEK293T; 5×10^5 cells/well) were cultured in DMEM medium supplemented with 10% (v/v) fetal bovine serum, 100 ug/ml of streptomycin, 100 IU/ml of penicillin and 2 mM glutamine. For the transient transfections, the cell cultures were added with plasmids carrying LXR-alpha (pLXR-alpha; 0.6 ug), the retinoid X receptor (pRXR; 0.2 ug), a LXR response element-luciferase reporter (pRE-LUC; 0.7 ug) and beta-galactosidase gene (pRSV-LacZ; 0.6 ug) as a transfection control, using Lipofectamine 2000 (Invitrogen). […] Compounds III to VI are […] analogs bearing a fluorine atom at C-6. To assess LXR-alpha activation, at the end of the incubation period luciferase activity was measured by use of a luciferase assay system (Promega). The results of three independent assays, carried out in duplicate for each condition, are reported.

LXR-alpha [2] = test: LXR-alpha expression in UV-irradiated HaCaT cells (real time PCR); format: cell-based, human; conditions: 10 uM, 24 h after UV, vs. DMSO (UV, 24 h) and GW3965 (UV, 24 h)
Procedure: (§1) HaCaT cells—a human immortalized keratinocyte cell line—were exposed to 15 J/m^2 UVB (254 nm) irradiation. Twenty four hours after irradiation, the cells were harvested and RNA isolated to assess the expression of LXR-alpha, LXR-beta, ABCA1, TNF-alpha, IL-6, and IL-8 genes. HaCaT cells were cultured in DMEM supplemented with 10% (v/v) fetal bovine serum, penicillin (100 U/mL), streptomycin ([…]) and glutamine (2 mM). […] The expressions of ABCA1, TNF-alpha, IL-6, IL-8, LXR-alpha, and LXR-beta were normalized according to glyceraldehyde-3-phosphate dehydrogenase (GAPDH) expression. The results of three independent assays, carried out in duplicate for each condition, are reported.

ABCA1 [3] = test: ABCA1 expression in HaCaT cells (real time PCR); format: cell-based, human; conditions: 10 uM
Procedure: […] Twenty four hours after irradiation, the cells were harvested and RNA isolated to assess the expression of LXR-alpha, LXR-beta, ABCA1, TNF-alpha, IL-6, and IL-8 genes. HaCaT cells were cultured in DMEM supplemented with 10% (v/v) fetal bovine serum, penicillin (100 U/mL), streptomycin ([…]) and glutamine (2 mM). […] The expressions of ABCA1, TNF-alpha, IL-6, IL-8, LXR-alpha, and LXR-beta were normalized according to glyceraldehyde-3-phosphate dehydrogenase (GAPDH) expression. The results of three independent assays, carried out in duplicate for each condition, are reported.

ABCG1 [4] = test: ABCG1 expression in HepG2 cells (real time PCR); format: cell-based, human; conditions: GW3965 1 uM, 6 h
Procedure: (§3) The cells were incubated for 6 h in the presence of either Compound I (10 uM), or Compound II (10 uM), or the commercial LXR agonist GW3965 (1 uM), or Vehicle [DMSO, 0.1% (v/v)]). To obtain RNA, at the end of the incubation the cells were collected by centrifugation at 1,000 rpm for 2 min, washed with phosphate buffered saline, and lysed in 300 ul TRIZOL (Invitrogen). RNA samples were suspended in ul of RNAse free water, and their concentration determined (NanoDrop spectrophotometer). The ratio of the absorbance at 260 and 280 nm was used to assess RNA purity of an RNA preparation, with a value of 1.8-2.0 indicating pure RNA. To obtain cDNA, 1 ug of total RNA was denatured by incubating for 5 min at 70° C., before the addition of a mixture containing 0.5 ug oligo-dT primers and 25 ng/ml of random primers (Invitrogen), 1.0 mM dNTPs (Invitrogen), and 200 U M-MLV reverse transcriptase (Promega); after this the mixture was retrotranscribed at 37° C. for 60 min, followed by an incubation at 95° C. for 5 min to inactivate the enzyme. For the real time PCR amplification (Stratagene Thermal Cycler), cDNA samples were diluted 1/5 to 1/10 depending on the target amplification product. Calibration curves were obtained by use of eight successive 1:2 sample dilutions. Amplifications were carried out in a 25 ul final volume (5 ul cDNA sample plus 20 ul of reaction mixture) in the presence of either 3, 4 or 5 mM MgCl2 (depending on the amplified sequence), 0.25 mM dNTPs (Invitrogen), 1.25 U Taq polymerase (Invitrogen), 1 μM of the specific primers according to the target amplification sequence, and 0.025 μl SYBR Green (Roche). Melting curves were used to assess the specificity of the amplification products. […]

SRBEP-1 = SRBEP-1 expression in HepG2 cells (real time PCR); format: cell-based, human; conditions: GW3965 1 uM, 6 h
Procedure: as §3

[5] = test system: fatty acid synthase (FAS); test: FAS expression in HL-60 cells (real time PCR); format: cell-based, human; conditions: GW3965 1 uM, 6 h
Procedure: (§2) To investigate the effects of Compounds I and II on the expression of three genes involved in lipid metabolism [fatty acid synthase (FAS); and two ATP-dependent cholesterol and phospholipid transporters, such as ABCA1 and ABCG1], human promyelocytic leukemia cells (HL-60) that endogenously express LXR-alpha and LXR-beta were incubated in the presence of either Comp I or Comp II (10 uM), or GW3965 (1 uM) for 6 h. mRNA levels for FAS, ABCA1 and ABCG1 were determined by real time PCR and results were normalized to GAPDH expression. HL-60 (10^6 cells/well) were cultured in RPMI medium supplemented with 5% (v/v) fetal bovine serum, penicillin (100 IU/mL), streptomycin (100 ug/mL) y cyprofloxacin (0.4 ug/mL). […] To obtain RNA, at the end of the incubation the cells were collected by centrifugation at 1,000 rpm for 2 min, washed with phosphate buffered saline, and lysed in 300 ul TRIZOL (Invitrogen). RNA samples were suspended in […] of RNAse free water, and their concentration determined (NanoDrop spectrophotometer). […] To obtain cDNA, 1 ug of total RNA was denatured by incubating for 5 min at 70° C., before the addition of a mixture containing 0.5 ug oligo-dT primers and 25 ng/ml of random primers (Invitrogen), 1.0 mM dNTPs (Invitrogen), and 200 U M-MLV reverse transcriptase (Promega); after this the mixture was retrotranscribed at 37° C. for 60 min, followed by an incubation at 95° C. for 5 min to inactivate the enzyme. For the real time PCR amplification (Stratagene Thermal Cycler), cDNA samples were diluted 1/5 to 1/10 depending on the target amplification product. Calibration curves were obtained by use of eight successive 1:2 sample dilutions. Amplifications were carried out in a 25 ul final volume (5 ul cDNA sample plus 20 ul of reaction mixture) in the presence of either 3, 4 or 5 mM MgCl2 (depending on the amplified sequence), 0.25 mM dNTPs (Invitrogen), 1.25 U Taq polymerase (Invitrogen), 1 μM of the specific primers according to the target amplification sequence, and 0.025 μl SYBR Green (Roche). […]

ABCG1 [6] = test: ABCG1 expression in HL-60 cells (real time PCR); format: cell-based, human; conditions: GW3965 1 uM, 6 h
Procedure: as §2

ABCA1 [7] = test: ABCA1 expression in HL-60 cells (real time PCR); format: cell-based, human; conditions: GW3965 1 uM, 6 h
Procedure: as §2

TNF-alpha = TNF-alpha expression in UV-irradiated HaCaT cells (real time PCR); format: cell-based, human; conditions: 10 uM
Procedure: as §1

[8] = test system: fatty acid synthase (FAS or FASN); test: FASN expression in HepG2 cells (real time PCR); format: cell-based, human; conditions: GW3965 1 uM, 6 h
Procedure: as §3

LXR-alpha [9] = test: LXR-alpha expression in HepG2 cells (real time PCR); format: cell-based, human; conditions: GW3965 1 uM, 6 h
Procedure: The cells were incubated for 6 h in the presence of either Compound I (10 uM), or Compound II (10 uM), or the commercial LXR agonist GW3965 (1 uM), or Vehicle [DMSO, 0.1% (v/v)]). To obtain RNA, at the end of the incubation the cells were collected by centrifugation at 1,000 rpm for 2 min, washed with phosphate buffered saline, and lysed in 300 ul TRIZOL (Invitrogen). RNA samples were suspended in ul of RNAse free water, and their concentration determined (NanoDrop spectrophotometer). The ratio of the absorbance at 260 and 280 nm was used to assess RNA purity of an RNA preparation, with a value of 1.8-2.0 indicating pure RNA. To obtain cDNA, 1 ug of total RNA was denatured by incubating for 5 min at 70° C., before the addition of a mixture containing 0.5 ug oligo-dT primers and 25 ng/ml of random primers (Invitrogen), 1.0 mM dNTPs (Invitrogen), and 200 U M-MLV reverse transcriptase (Promega); after this the mixture was retrotranscribed at 37° C. for 60 min, followed by an incubation at 95° C. for 5 min to inactivate the enzyme. For the real time PCR amplification (Stratagene Thermal Cycler), cDNA samples were diluted 1/5 to 1/10 depending on the target amplification product. Calibration curves were obtained by use of eight successive 1:2 sample dilutions. […]

IL-8 = IL-8 expression in UV-irradiated HaCaT cells (real time PCR); format: cell-based, human; conditions: 10 uM, 24 h after UV, normalized to GAPDH
Procedure: as §1

O=C(O)Cc1cccc(OCCCN(Cc2cccc(C(F)(F)F)c2Cl)CC(c2ccccc2)c2ccccc2)c1 [GW3965, reference compound]
LXR-alpha driven gene expression, increase compared with vehicle-treated cells (LXR-alpha [1]): 3 fold
LXR-alpha expression (LXR-alpha [2]): higher in HaCaT incubated in the presence of DMSO compared with non-irradiated cells and GW3965-treated cells
induction of ABCA1 expression versus Comp I- or Comp II-treated cells (ABCA1 [3]; HaCaT, 24 h after UV exposure): stronger
induction of ABCA1 expression versus Comp I- or Comp II-treated cells (ABCA1 [3]; non-irradiated HaCaT): stronger
ABCG1 expression higher than in vehicle (DMSO) treated controls (ABCG1 [4]): 60 times
SRBEP-1 expression higher than in vehicle (DMSO) treated controls (SRBEP-1): 4.6 times
FAS expression higher than in vehicle-treated controls [5]: 1.8 times
ABCG1 expression higher than in vehicle-treated controls (ABCG1 [6]): ~10 times
ABCA1 expression higher than in vehicle-treated controls (ABCA1 [7]): ~3 times
TNF-alpha expression versus Comp I-treated cells (TNF-alpha; 24 h after UV): significantly higher
TNF-alpha expression versus DMSO-treated cells (TNF-alpha; 24 h after UV (254 nm, 15 J/m^2), normalized to GAPDH): significantly lower
FASN expression higher than in vehicle (DMSO) treated controls [8]: 3.7 times
induction of LXR-alpha expression compared with DMSO treated HepG2 (LXR-alpha [9]): 3.5 times
IL-8 expression versus DMSO-treated cells (IL-8): significantly lower
